Laboratory results taken from patent publication US6358885B1, “Substituted phenylheterocyclic herbicides” (Mississippi State University, priority 1992, dated 2002).

What was measured:
soybean = assay: Test B preemergence/postemergence greenhouse plant response rating 0 to 10; format: in vivo, Glycine max; conditions: Rate 200 g/ha
Outline: (§1)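 Test chemicals were sprayed onto freshly planted seed and, concurrently, onto young plants between the one and four leaf stage. After a twelve- to sixteen-day greenhouse period, each species was visually compared with untreated controls.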

rice = assay: as above; format: in vivo, Oryza sativa; conditions: for Plant response rating, Rice: 0 to 10 scale
Outline: as §1

wild buckwheat = assay: as above; format: in vivo, Polygonum convolvulus; conditions: for Plant response rating, Wild buckwheat: 0 to 10 scale
Outline: as §1

sugar beet = assay: Test C preemergence/postemergence greenhouse plant response rating 0 to 100; format: in vivo, Beta vulgaris; conditions: for Plant response rating, Sugar beet: 125 g/ha, 0 to 100 scale
Outline: (§2)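 Compounds in non-phytotoxic solvent went onto sandy loam before emergence (seeded one day earlier) or onto plants at the one-to-four leaf stage. Duck salad was treated via flood water (~2.5 cm, maintained) over silt loam.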

purple nutsedge = assay: Test B preemergence/postemergence greenhouse plant response rating 0 to 10; format: in vivo, Cyperus rotundus; conditions: for Plant response rating, Nutsedge: 0 to 10 scale
Outline: as §1

rape = assay: Test C preemergence/postemergence greenhouse plant response rating 0 to 100; format: in vivo, Brassica napus; conditions: for Plant response rating, Rape: 125 g/ha, 0 to 100 scale
Outline: as §2

barley = assay: as above; format: in vivo, Hordeum vulgare; conditions: for Plant response rating Barley Igri: 125 g/ha, 0 to 100 scale
Outline: as §2

corn = assay: as above; format: in vivo, Zea mays; conditions: for Plant response rating, Corn: 125 g/ha, 0 to 100 scale
Outline: as §2

velvetleaf = assay: as above; format: in vivo, Abutilon theophrasti; conditions: for Plant response rating, Velvetleaf: 125 g/ha, 0 to 100 scale
Outline: as §2

Question: Which “Plant response rating (0 to 10 scale), Soybean” value (soybean; PREEMERGENCE) does the source give for `CCOCOc1cc(-c2nn3c(c2Cl)CCCC3)c(F)cc1Cl` [Compound 59] here?
Answer: 4

Question: What about the “Plant response rating, Soybean” value (soybean; POSTEMERGENCE, 0 to 10 scale) of the same compound?
Answer: 7

Question: And the “Plant response rating, Rice” value (rice; POSTEMERGENCE, Rate 50 g/ha)?
Answer: 5

Question: And the “Plant response rating, Rice” value (rice; PREEMERGENCE, Rate 50 g/ha)?
Answer: 0

Question: And the “Plant response rating (0 to 10 scale), Rice” value (rice; PREEMERGENCE, Rate 200 g/ha)?
Answer: 1

Question: And the “Plant response rating, Rice” value (rice; Rate 200 g/ha, POSTEMERGENCE)?
Answer: 5

Question: And the “Plant response rating, Wild buckwheat” value (wild buckwheat; POSTEMERGENCE, Rate 50 g/ha)?
Answer: 10

Question: And the “Plant response rating, Wild buckwheat” value (wild buckwheat; PREEMERGENCE, Rate 50 g/ha)?
Answer: 10

Question: And the “Plant response rating (0 to 10 scale), Wild buckwheat” value (wild buckwheat; PREEMERGENCE, Rate 200 g/ha)?
Answer: 10

Question: What about the “Plant response rating, Wild buckwheat” value (wild buckwheat; Rate 200 g/ha, POSTEMERGENCE) of the same compound?
Answer: 10

Question: And the “Plant response rating, Sugar beet” value (sugar beet; POSTEMERGENCE)?
Answer: 100

Question: And the “Plant response rating (0 to 100), Sugar beet” value (sugar beet; POSTEMERGENCE, Rate 2 g/ha)?
Answer: 90

Question: What about the “Plant response rating, Sugar beet” value (sugar beet; PREEMERGENCE) of the same compound?
Answer: 100

Question: What about the “Plant response rating (0 to 100), Sugar beet” value (sugar beet; PREEMERGENCE, Rate 2 g/ha) of the same compound?
Answer: 0

Question: What about the “Plant response rating (0 to 100), Sugar beet” value (sugar beet; Rate 8 g/ha, POSTEMERGENCE) of the same compound?
Answer: 100

Question: And the “Plant response rating (0 to 100), Sugar beet” value (sugar beet; Rate 8 g/ha, PREEMERGENCE)?
Answer: 30

Question: What about the “Plant response rating (0 to 100), Sugar beet” value (sugar beet; Rate 31 g/ha, POSTEMERGENCE) of the same compound?
Answer: 100

Question: And the “Plant response rating (0 to 100), Sugar beet” value (sugar beet; Rate 31 g/ha, PREEMERGENCE)?
Answer: 50

Question: What about the “Plant response rating, Nutsedge” value (purple nutsedge; POSTEMERGENCE, Rate 50 g/ha) of the same compound?
Answer: 2

Question: And the “Plant response rating, Nutsedge” value (purple nutsedge; PREEMERGENCE, Rate 50 g/ha)?
Answer: 0

Question: And the “Plant response rating (0 to 10 scale), Nutsedge” value (purple nutsedge; PREEMERGENCE, Rate 200 g/ha)?
Answer: 0

Question: And the “Plant response rating, Nutsedge” value (purple nutsedge; Rate 200 g/ha, POSTEMERGENCE)?
Answer: 5

Question: What about the “Plant response rating, Rape” value (rape; POSTEMERGENCE) of the same compound?
Answer: 100

Question: And the “Plant response rating (0 to 100), Rape” value (rape; POSTEMERGENCE, Rate 2 g/ha)?
Answer: 20

Question: What about the “Plant response rating, Rape” value (rape; PREEMERGENCE) of the same compound?
Answer: 40

Question: And the “Plant response rating (0 to 100), Rape” value (rape; PREEMERGENCE, Rate 2 g/ha)?
Answer: 0

Question: And the “Plant response rating (0 to 100), Rape” value (rape; Rate 8 g/ha, POSTEMERGENCE)?
Answer: 40

Question: What about the “Plant response rating (0 to 100), Rape” value (rape; Rate 8 g/ha, PREEMERGENCE) of the same compound?
Answer: 0

Question: What about the “Plant response rating (0 to 100), Rape” value (rape; Rate 31 g/ha, POSTEMERGENCE) of the same compound?
Answer: 70

Question: What about the “Plant response rating (0 to 100), Rape” value (rape; Rate 31 g/ha, PREEMERGENCE) of the same compound?
Answer: 0

Question: And the “Plant response rating Barley Igri” value (barley; POSTEMERGENCE)?
Answer: 60

Question: What about the “Plant response rating (0 to 100), Barley Igri” value (barley; POSTEMERGENCE, Rate 2 g/ha) of the same compound?
Answer: 30

Question: And the “Plant response rating Barley Igri” value (barley; PREEMERGENCE)?
Answer: 10

Question: What about the “Plant response rating (0 to 100), Barley Igri” value (barley; PREEMERGENCE, Rate 2 g/ha) of the same compound?
Answer: 0

Question: And the “Plant response rating (0 to 100), Barley Igri” value (barley; Rate 8 g/ha, POSTEMERGENCE)?
Answer: 40

Question: And the “Plant response rating (0 to 100), Barley Igri” value (barley; Rate 8 g/ha, PREEMERGENCE)?
Answer: 0

Question: What about the “Plant response rating (0 to 100), Barley Igri” value (barley; Rate 31 g/ha, POSTEMERGENCE) of the same compound?
Answer: 50

Question: What about the “Plant response rating (0 to 100), Barley Igri” value (barley; Rate 31 g/ha, PREEMERGENCE) of the same compound?
Answer: 0

Question: And the “Plant response rating, Corn” value (corn; POSTEMERGENCE)?
Answer: 65

Question: What about the “Plant response rating (0 to 100), Corn” value (corn; POSTEMERGENCE, Rate 2 g/ha) of the same compound?
Answer: 30

Question: What about the “Plant response rating, Corn” value (corn; PREEMERGENCE) of the same compound?
Answer: 0

Question: And the “Plant response rating (0 to 100), Corn” value (corn; PREEMERGENCE, Rate 2 g/ha)?
Answer: 0

Question: What about the “Plant response rating (0 to 100), Corn” value (corn; Rate 8 g/ha, POSTEMERGENCE) of the same compound?
Answer: 40

Question: What about the “Plant response rating (0 to 100), Corn” value (corn; Rate 8 g/ha, PREEMERGENCE) of the same compound?
Answer: 0

Question: What about the “Plant response rating (0 to 100), Corn” value (corn; Rate 31 g/ha, POSTEMERGENCE) of the same compound?
Answer: 50

Question: And the “Plant response rating (0 to 100), Corn” value (corn; Rate 31 g/ha, PREEMERGENCE)?
Answer: 0

Question: And the “Plant response rating, Velvetleaf” value (velvetleaf; POSTEMERGENCE)?
Answer: 100

Question: And the “Plant response rating (0 to 100), Velvetleaf” value (velvetleaf; POSTEMERGENCE, Rate 2 g/ha)?
Answer: 50

Question: And the “Plant response rating, Velvetleaf” value (velvetleaf; PREEMERGENCE)?
Answer: 100

Question: And the “Plant response rating (0 to 100), Velvetleaf” value (velvetleaf; PREEMERGENCE, Rate 2 g/ha)?
Answer: 0

Question: And the “Plant response rating (0 to 100), Velvetleaf” value (velvetleaf; Rate 8 g/ha, POSTEMERGENCE)?
Answer: 70

Question: And the “Plant response rating (0 to 100), Velvetleaf” value (velvetleaf; Rate 8 g/ha, PREEMERGENCE)?
Answer: 40

Question: What about the “Plant response rating (0 to 100), Velvetleaf” value (velvetleaf; Rate 31 g/ha, POSTEMERGENCE) of the same compound?
Answer: 90

Question: What about the “Plant response rating (0 to 100), Velvetleaf” value (velvetleaf; Rate 31 g/ha, PREEMERGENCE) of the same compound?
Answer: 95
